In patent US20160023126A1, “SPRAY DRYING TECHNIQUES” (President and Fellows of Harvard College, priority 2010, published 2016):

Columns and labels:
Type in all cases: physicochemical
[1] = SEM analysis of particle size and morphology of spray-dried drug; settings: microfluidic spray dryer; danazol in IPA and pure IPA (antisolvent replaced by solvent)
Procedure: To evaluate the effect of microfluidic processing on particle size and morphology of the hydrophobic drug, no stabilizer or surfactant was added to influence the particle growth. […] Morphology and particle size of the processed drug was examined by scanning electron microscopy (“SEM”) analysis. […] The scale bar denotes 300 nm.
(§1) Processed danazol was collected at distances between 5 cm and 30 cm from the spray nozzle. For SEM analysis, the spray was collected on glass slides and coated with Pd/Pt. An Ultra55 Field Emission SEM (Zeiss) coupled with an EDX detector was used. The size distribution of the nanoparticles was determined by image analysis of SEM photographs using ImageJ. For XRPD analysis, samples were collected in an aluminum box over which the spray dryer was mounted. XPRD analysis was performed using a Scintag XDS2000 powder diffractometer (Scintag, Cupertino, California, USA) with Cu Ka (K-alpha) radiation at 40 kV and 30 mA. The XRD patterns were taken at room temperature in the range of 10°≦2θ≦50° (2 theta) with a scan rate of 1° min^−1 and a step size of 0.02°.

[2] = X-ray powder diffraction analysis (XRPD) of crystallinity
Description: X-ray powder diffraction analysis (“XRPD”) was employed to determine the effect of spatial sampling on the crystallinity of danazol. Characteristic peaks at 20 (2 theta) of 15.8, 17.1 and 19.0 in the XRD pattern of unprocessed danazol were used as reference. In processed danazol, the intensity of the characteristic peaks decreased as the collection distance of the spray is increased. These figures show nanoparticles, approximately 20 nm to 60 nm in diameter, assembled in a dense network.
as §1

[3] = Energy dispersive X-ray (EDX) analysis of chemical composition after spray drying; settings: unprocessed vs processed danazol, either solvent system (IPA/water, IPA/IPA)
Procedure: Scale bar denotes 300 nm.
as §1

- size and morphology of nanoparticles compared with IPA/water system [1]: identical size and morphology
- crystallinity (XRPD) ([2]; conventional Mini Spray Dryer B 191, solution of danazol in IPA): retained
- crystallinity (XRPD pattern) ([2]; microfluidic spray dryer, danazol in IPA with water, collected 5 cm from nozzle): crystalline aggregates
- chemical composition of the drug during the spray drying process [3]: remained unchanged
SMILES: C#C[C@]1(O)CC[C@H]2[C@@H]3CCC4=Cc5oncc5C[C@]4(C)[C@H]3CC[C@@]21C [danazol]
- crystallinity (intensity of characteristic XRPD peaks) ([2]; microfluidic spray dryer, collection distance of the spray increased (5 cm to 30 cm)): initial crystallinity of the drug was not recovered
